Measured values from US20060159735A1, “Method of reclaiming drug compound from liposomal drug manufacturing stream” (priority 2005, published 2006).

How the values were obtained:
Format in all cases: physicochemical
[1] = Partitioning of HSPC and cholesterol dispersions into chloroform; settings: 1:3 CHCl3:Aq volume ratio, HPLC; for extraction efficiency with chloroform: 0.1 mg/mL cholesterol:HSPC dispersion
Method: Concentrations of 1 mg/mL and 0.1 mg/mL of the 2:1 molar ratio HSPC:cholesterol spray dried mix dispersions were produced. Then the mixes were extracted with chloroform and varying chloroform:aqueous ratios at 1:3, 1:1 and 3:1. […] The other ratios produced milky emulsions in the aqueous phase.
HSPC consists of two main components: PSPC (1-palmitoyl-2-stearoyl-sn-glyero-3-phosphocholine) and DSPC (1,2-distearoyl-sn-glycero-3-phosphocholine). […] For the 0.1 mg/mL dispersion the extraction was less efficient; being ˜95% for cholesterol, ˜63% for PSPC and ˜24% for DSPC.

[2] = Partitioning of HSPC and cholesterol into chloroform in the presence of OSI-7904; settings: for retained in the aqueous phase: first extraction, 17 mg/mL OSI-7904 with ~0.5 mg/mL HSPC:cholesterol mix, 1:3 CHCl3:Aq, shaking 1 hour; for amounts retained in the aqueous phase: second extraction with chloroform of the aqueous phase
Method: A 17 mg/mL OSI-7904 solution containing ˜0.5 mg/mL, 2:1 molar ratio HSPC:cholesterol mix was produced and extracted by mechanical shaking for 1 hour with chloroform at the 1:3 (CHCl3:Aq) ratio. Before partition the aqueous phase was hazy and yellow in color. After extraction the upper aqueous phase was clear and yellow.
The upper aqueous phase was analyzed for HSPC, cholesterol and OSI-7904. Approximately 94% of OSI-7904 was retained in the aqueous phase and approximately 2%, 8% and 8% retained of cholesterol, DSPC and PSPC respectively. This aqueous phase was extracted a second time with chloroform. The amounts retained in the aqueous phase for PSPC, DSPC and cholesterol were approximately 65%, 100% and 67% respectively for this second extraction.

[3] = Potentiometric titration of OSI-7904 (Sirius Glpka autotitrator), with and without chloroform; solubility
Excerpt: The ability of OSI-7904 to partition into chloroform as a function of pH was studied using a Sirius Glpka autotitrator. Attempts were first made to determine the pKas of the OSI-7904 drug substance using the Sirius autotitrator, since these values are required when determining the partition coefficients by potentiometric titration. […] It is usual practice, with a compound of low solubility, to titrate the compound with various amounts of cosolvent present to determine apparent pKas and then perform an extrapolation back to 100% aqueous to calculate the true thermodynamic pKa. However, even with cosolvent (methanol) present, precipitation of the drug was still a problem and reproducible data sets were not obtained. […] As a result, extraction of OSI-7904 with chloroform is not a practical proposition since large volumes of chloroform would be required to solubilise the drug.
In this case, the Bjerrum plot is for the titration of 10 mL of 0.33 mM OSI-7904 aqueous solution in the presence of 5 mL chloroform. Titration started at low pH. The sharp change in slope at pH˜4.5 and lack of symmetry in the curve is indicative of undissolved compound present which then dissolves as the pH is increased.

[4] = Chloroform extraction of OSI-7904 solution with trace (saturated solution) HSPC and cholesterol; settings: 1.2 mg/mL OSI-7904, trace HSPC and cholesterol; 1:3 CHCl3:Aq
Excerpt: The work above had been carried out with dispersions of solid HSPC:cholesterol. It was thought that the actual permeate would only contain materials in free solution. A better model for this was considered to be saturating some water with the HSPC:cholesterol mix, filtering out the solid and working with this clarified solution. A saturated solution prepared in this way typically contained only traces of cholesterol and HSPC. It was noticed however that on one occasion when the dispersion of HSPC:cholesterol in water had been stirred continuously for approximately four days, the filtrate was opalescent and not clear and the levels of the HSPC and cholesterol were much higher. It was thought the most likely explanation for this was that initially multilamellar liposomes were formed and these were filtered out leaving only HSPC and cholesterol that are in free solution or in micelles. On extending mixing, the multilamellar liposomes are broken down to smaller particles and these are able to pass through the pores of the filter.
A 1.2 mg/mL solution of OSI-7904 was prepared containing trace levels of HSPC and cholesterol in solution (no solid present). This was extracted with chloroform in the 1:3 ratio (8.8 mL:26.5 mL, CHCl3:Aq) by manually shaking for 1 min. […] The aqueous phase was filtered through a 0.45 μm aperture filter and analyzed for OSI-7904, cholesterol and HSPC by HPLC. […]

Structure (SMILES) | extraction efficiency with chloroform [1] [%] | retained in the aqueous phase [2] | amounts retained in the aqueous phase [2] | solubility in aqueous media ([3]; at low pHs) | solubility in chloroform ([3]; even at low pH, titration in presence of chloroform) | solubility ([3]; with aqueous solution present during titration, organic solvent or mixture, from Bjerrum plot, titration of 10 mL 0.33 mM aqueous solution in presence of 5 mL chloroform) [µg/mL] | levels after extraction with chloroform ([1]; 1 mg/mL cholesterol:HSPC dispersion) | change in concentration in the aqueous phase after extraction with chloroform [4]
CCCCCCCCCCCCCCCCCC(=O)OC[C@H](COP(=O)([O-])OCC[N+](C)(C)C)OC(=O)CCCCCCCCCCCCCCCCC [DSPC, 1,2-distearoyl-sn-glycero-3-phosphocholine] | ~24 | ~8% | ~100% | – | – | – | – | –
Cc1nc2ccc3ccc(CNc4ccc5c(c4)CN([C@@H](CCC(=O)O)C(=O)O)C5=O)cc3c2c(=O)[nH]1 [OSI-7904] | – | Approximately 94% | – | very insoluble | very low | < 400 | – | –
CCCCCCCCCCCCCCCCCC(=O)O[C@H](COC(=O)CCCCCCCCCCCCCCC)COP(=O)([O-])OCC[N+](C)(C)C [PSPC, 1-palmitoyl-2-stearoyl-sn-glyero-3-phosphocholine] | ~63 | ~8% | approximately 65% | – | – | – | – | –
CC(C)CCC[C@@H](C)[C@H]1CC[C@H]2[C@@H]3CC=C4C[C@@H](O)CC[C@]4(C)[C@H]3CC[C@]12C [cholesterol] | ~95 | approximately 2% | ~67% | – | – | – | undetectable | no decrease
